Laboratory results reported in PubChem BioAssay AID330 (DTP/NCI, 2004).
Where “and” joins values, the source holds several entries; their conditions need not be identical. Identical values can stand only once. Inconclusive results and toxic doses are left out. The calls were made as follows: active = survival T/C of 150% or more; inactive = T/C below 125% in these data.

System: P388 leukemia ip, CD2F1 mice, survival T/C
Assay: NCI In Vivo Anticancer Drug Screen. Data for tumor model P388 Leukemia (intraperitoneal) in CD2F1 (CDF1) mice
Details: endpoint: median survival time, higher = longer survival
Procedure, shortened: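 Mice carrying the transplanted tumor received test compound or vehicle. Survival was recorded in each group, and the value is the treated-group measurement divided by that of the vehicle-treated control group.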

[1] = dose: 30.0 mg/kg/injection, schedule: Q01DX005 (ip), vehicle: saline with Tween-80
[2] = dose: 60.0 mg/kg/injection, schedule: Q01DX005 (ip), vehicle: saline with Tween-80
[3] = dose: 120.0 mg/kg/injection, schedule: Q01DX005 (ip), vehicle: saline with Tween-80
[4] = dose: 240.0 mg/kg/injection, schedule: Q01DX005 (ip), vehicle: saline with Tween-80
[5] = dose: 50.0 mg/kg/injection, schedule: Q01DX009 (ip), vehicle: Klucel (hydroxypropylcellulose) (HPC)
[6] = dose: 100.0 mg/kg/injection, schedule: Q01DX009 (ip), vehicle: Klucel (hydroxypropylcellulose) (HPC)
[7] = dose: 100.0 mg/kg/injection, schedule: Q01DX009 (ip), vehicle: saline with Tween-80
[8] = dose: 200.0 mg/kg/injection, schedule: Q01DX009 (ip), vehicle: saline with Tween-80
[9] = dose: 50.0 mg/kg/injection, schedule: Q01DX009 (ip), vehicle: saline with Tween-80
[10] = dose: 15.0 mg/kg/injection, schedule: Q01DX005 (ip), vehicle: saline with Tween-80

Measured: T/C

CCCOc1cc2c(cc1C(C)c1ccc(OCC)c(C)c1)OCO2 (centres undefined)
inactive: [1] 100 % of control | [2] 103 % of control | [3] 106 % of control | [4] 116 % of control

Cl[C](Cl)(Cl)[Hg][c]1ccccc1
inactive: dose: 1.5 mg/kg/injection, schedule: Q01DX009 (ip), vehicle: saline with Tween-80 98 % of control | dose: 3.0 mg/kg/injection, schedule: Q01DX009 (ip), vehicle: saline with Tween-80 99 % of control | dose: 6.0 mg/kg/injection, schedule: Q01DX009 (ip), vehicle: saline with Tween-80 114 % of control | dose: 12.0 mg/kg/injection, schedule: Q01DX009 (ip), vehicle: saline with Tween-80 89 % of control

CN(C)CC1CC1C1(C)c2ccccc2Sc2ccccc21 (centres undefined)
inactive: [5] 98 % of control | [6] 95 % of control

CCCCC#CCOCC(O)CCl (centres undefined)
inactive: dose: 12.5 mg/kg/injection, schedule: Q01DX009 (ip), vehicle: Klucel (hydroxypropylcellulose) (HPC) 100 % of control | dose: 25.0 mg/kg/injection, schedule: Q01DX009 (ip), vehicle: Klucel (hydroxypropylcellulose) (HPC) 100 % of control | [5] 98 % of control | [6] 100 % of control | dose: 200.0 mg/kg/injection, schedule: Q01DX009 (ip), vehicle: Klucel (hydroxypropylcellulose) (HPC) 103 % of control

CC(=O)ON1C(=O)C=CC1=O
inactive: dose: 0.78 mg/kg/injection, schedule: Q01DX009 (ip), vehicle: water 109 % of control | dose: 1.56 mg/kg/injection, schedule: Q01DX009 (ip), vehicle: water 101 % of control | dose: 3.13 mg/kg/injection, schedule: Q01DX009 (ip), vehicle: water 104 % of control and 87 % of control | dose: 6.25 mg/kg/injection, schedule: Q01DX009 (ip), vehicle: water 104 % of control and 86 % of control | dose: 12.5 mg/kg/injection, schedule: Q01DX009 (ip), vehicle: water 109 % of control and 90 % of control

COC(=O)C1C2C(C)CC3(CC12C)OCCO3 (centres undefined)
inactive: [7] 91 % of control | [8] 91 % of control | dose: 400.0 mg/kg/injection, schedule: Q01DX009 (ip), vehicle: saline with Tween-80 91 % of control

O=C1CCN(Cc2ccccc2)C(=O)N1
inactive: [9] 100 % of control | [7] 105 % of control | [8] 100 % of control

CC(/C=C/c1ccc(Cl)cc1)=N\NC(N)=S
inactive: dose: 7.5 mg/kg/injection, schedule: Q01DX005 (ip), vehicle: saline with Tween-80 100 % of control | [10] 120 % of control | [1] 124 % of control

COc1ccc2c(c1)C[N+](C)(CCc1ccccc1)[B-]O2 (centres undefined)
inactive: dose: 50.0 mg/kg/injection, schedule: Q01DX005 (ip), vehicle: saline + Tween-80 + alcohol 91 % of control | dose: 100.0 mg/kg/injection, schedule: Q01DX005 (ip), vehicle: saline + Tween-80 + alcohol 93 % of control

O=C1C(Br)=CC2C1C1C=CC2(Br)C1=O (centres undefined)
inactive: [1] 105 % of control and 107 % of control | [2] 111 % of control and 112 % of control and 118 % of control | [3] 101 % of control and 111 % of control and 113 % of control | [4] 120 % of control

CC(=O)OCC1OC([S][Sb]([CH3])[CH3])C(OC(C)=O)C(OC(C)=O)C1OC(C)=O (centres undefined)
inactive: [10] 112 % of control | [1] 101 % of control | [2] 115 % of control

Cc1ccccc1C1(O)CCCCC1
inactive: [9] 105 % of control | [7] 107 % of control | [8] 101 % of control

CCCCOC1=NC2C(=O)NCC2CO1 (centres undefined)
inactive: dose: 50.0 mg/kg/injection, schedule: Q01DX005 (ip), vehicle: saline with Tween-80 97 % of control | dose: 100.0 mg/kg/injection, schedule: Q01DX005 (ip), vehicle: saline with Tween-80 94 % of control | dose: 200.0 mg/kg/injection, schedule: Q01DX005 (ip), vehicle: saline with Tween-80 97 % of control
